Laboratory results from article PMC2361651 (British Journal of Cancer, 2005).
Values joined by “and” are separate entries in the source; they are usually repeats but may differ in a detail not shown here. Identical values can stand only once. Like-named read-outs stand apart in the source and are kept apart here.

How the values were obtained:
[1] = Plasma pharmacokinetics of SU5416 and metabolites in Phase I patients (HPLC UV); format: in vivo, human; details: twice weekly i.v. infusion; for clearance: read-out: CL (observed) (converted); for half-life: read-out: T1/2λz (converted); for Vd: read-out: Vz (observed)
Procedure: Samples were taken prior to treatment infusion, 15 min into the infusion, at completion of the infusion and then at 5, 10, 20, 30, 45, 60, 120 and 240 min following the infusion. […] At the designated times, 4.0 ml of blood were collected into a lithium heparin tube, gently inverted and placed on ice to maintain the sample at 2–8°C. All samples were immediately centrifuged at 6000 r.p.m. at 4°C for 10 min, the supernatant divided between two 1.5 ml Nalgene cryovials and snap frozen in liquid nitrogen. Separated plasma samples were subsequently stored at −70°C until analysis.
Pharmacokinetic analysis was performed using a fully validated HPLC UV method ([Stopeck et al, 2002]). Plasma samples, standards (25–2000 ng ml^−1) and quality controls spiked with internal standards were extracted with acetonitrile. Following centrifugation, drying and reconstitution in 200 μl mobile phase, 20 μl were analysed by HPLC UV. Chromatography was carried out using a C18 analytical column, with a gradient mobile phase containing acetonitrile and 10 mM ammonium formate at pH 2.6. The flow rate was 0.8 ml min^−1 and the run-time 21 min. Detection was via UV absorption at a wavelength of 440 nm. The accuracy of the assay, reflected in relative error of measured concentration to theoretical (prepared) concentrations, was between 0.9 and 5.6% for all quality control samples.
Pharmacokinetic parameters were evaluated using WinNonLin Software®.

[2] = human, in vivo
[3] = human, plasma, iv, 85 mg m^−2, individual patients, dose 85 mg m^−2, cycle 2inj8
[4] = human, plasma, iv, 110 mg m^−2, individual patients, dose 110 mg m^−2, cycle 1inj2
[5] = human, plasma, iv, 110 mg m^−2, individual patients, dose 110 mg m^−2, cycle 1inj8
[6] = individual patients, dose 48 mg m^−2, cycle 1inj2
[7] = individual patients, dose 48 mg m^−2, cycle 1inj8
[8] = individual patients, dose 65 mg m^−2, cycle 1inj2
[9] = individual patients, dose 65 mg m^−2, cycle 1inj8
[10] = individual patients, dose 85 mg m^−2, cycle 1inj2
[11] = individual patients, dose 85 mg m^−2, cycle 1inj8
[12] = individual patients, dose 110 mg m^−2, cycle 1inj2
[13] = individual patients, dose 145 mg m^−2, cycle 1inj2
[14] = individual patients, dose 145 mg m^−2, cycle 1inj8
[15] = individual patients, dose 145 → 190 mg m^−2, cycle 1inj2
[16] = individual patients, dose 145 → 190 mg m^−2, cycle 1inj8

Cc1cc(C)c(/C=C2\C(=O)Nc3ccccc32)[nH]1 [SU5416, Z-3-[(2,4-dimethylpyrrol-5-yl)methylidenyl]-2-indolinone]
clearance ([1]; human, plasma, iv, 85 mg m^−2, individual patients, dose 85 mg m^−2, cycle 1inj8): 1000 mL/min | AUC(0-t) [1, 3]: 1620 ng·h/mL | clearance [1, 3]: 1470 mL/min | Cmax ([1]; human, plasma, iv, 85 mg m^−2, individual patients, dose 85 mg m^−2, cycle 2inj8, read-out: Cmax): 2800 ng/mL | half-life [1, 3]: 44.4 min | Vd [1, 3]: 94 L | AUC(0-t) [1, 4]: 4020 ng·h/mL | clearance [1, 4]: 767 mL/min | Cmax ([1]; human, plasma, iv, 110 mg m^−2, individual patients, dose 110 mg m^−2, cycle 1inj2, read-out: Cmax): 3510 ng/mL | half-life [1, 4]: 37.2 min | Vd [1, 4]: 41 L | AUC(0-t) [1, 5]: 3800 ng·h/mL | clearance [1, 5]: 1400 mL/min | Cmax ([1]; human, plasma, iv, 110 mg m^−2, individual patients, dose 110 mg m^−2, cycle 1inj8, read-out: Cmax): 3580 ng/mL | half-life [1, 5]: 37.2 min | Vd [1, 5]: 75 L | AUClast [1, 6]: 463 ng·h/mL and 848 ng·h/mL and 1143 ng·h/mL | CL (observed) [1, 6]: 181 L/h and 94 L/h and 83 L/h | Cmax [1, 6]: 2724 ng/mL and 2253 ng/mL | T1/2λz [1, 6]: 30.6 min and 36.6 min | Vz (observed) [1, 6]: 72 L | CL (observed) [1, 7]: 115 L/h | Cmax [1, 7]: 1289 ng/mL | T1/2λz [1, 7]: 25.2 min | AUClast [1, 8]: 2510 ng·h/mL | CL (observed) [1, 8]: 74 L/h | Cmax [1, 8]: 2968 ng/mL | T1/2λz [1, 8]: 49.2 min | Vz (observed) [1, 8]: 88 L | AUClast [1, 9]: 2068 ng·h/mL | CL (observed) [1, 9]: 89 L/h | Cmax [1, 9]: 2914 ng/mL | T1/2λz [1, 9]: 39 min | Vz (observed) [1, 9]: 84 L | AUClast [1, 10]: 1151 ng·h/mL and 2094 ng·h/mL | CL (observed) [1, 10]: 133 L/h and 102 L/h | Cmax [1, 10]: 1624 ng/mL and 2057 ng/mL | T1/2λz [1, 10]: 42.6 min | Vz (observed) [1, 10]: 45 L and 136 L and 104 L | AUClast [1, 11]: 1250 ng·h/mL | Cmax [1, 11]: 3672 ng/mL and 1354 ng/mL | T1/2λz [1, 11]: 36 min and 123 min | Vz (observed) [1, 11]: 52 L and 447 L | AUClast [1, 12]: 2345 ng·h/mL and 3842 ng·h/mL | CL (observed) [1, 12]: 70 L/h and 83 L/h | Cmax [1, 12]: 2750 ng/mL and 3237 ng/mL | T1/2λz [1, 12]: 41.4 min and 33 min | Vz (observed) [1, 12]: 70 L and 66 L | AUClast [1, 13]: 4946 ng·h/mL and 3471 ng·h/mL and 2021 ng·h/mL | CL (observed) [1, 13]: 55 L/h and 92 L/h and 150 L/h | Cmax [1, 13]: 4851 ng/mL and 2869 ng/mL and 1217 ng/mL | T1/2λz [1, 13]: 53.4 min and 42.6 min | Vz (observed) [1, 13]: 119 L and 153 L | AUClast [1, 14]: 2349 ng·h/mL | CL (observed) [1, 14]: 62 L/h and 169 L/h | Cmax [1, 14]: 2080 ng/mL | T1/2λz [1, 14]: 40.2 min | Vz (observed) [1, 14]: 51 L and 164 L | AUClast [1, 15]: 3389 ng·h/mL and 1928 ng·h/mL and 3683 ng·h/mL and 3397 ng·h/mL and 2621 ng·h/mL and 2870 ng·h/mL and 2465 ng·h/mL and 1267 ng·h/mL and 4094 ng·h/mL and 1578 ng·h/mL | Cmax [1, 15]: 4159 ng/mL and 2474 ng/mL and 2961 ng/mL and 2774 ng/mL and 2894 ng/mL and 2795 ng/mL and 3202 ng/mL and 1177 ng/mL and 4508 ng/mL and 2625 ng/mL | T1/2λz [1, 15]: 40.8 min and 30 min and 47.4 min and 39.6 min and 81.6 min and 40.2 min and 69 min and 22.8 min and 29.4 min and 41.4 min | Vz (observed) [1, 15]: 63 L and 70 L and 85 L and 196 L and 97 L and 119 L and 118 L and 39 L and 106 L | Cmax [1, 16]: 3370 ng/mL and 2274 ng/mL and 2066 ng/mL and 2161 ng/mL and 493 ng/mL and 4283 ng/mL | Vz (observed) [1, 16]: 57 L and 74 L and 176 L and 488 L and 214 L and 46 L | Grade II hypersensitivity reactions, patients affected [2]: 11 patients
